Experimental data reported in US20250000847A1, “TREATMENT OF NEURODEGENERATIVE DISEASES WITH HDAC INHIBITORS” (CASE WESTERN RESERVE UNIVERSITY, priority 2021, published 2025).

Legend:
[1] = tested on: NF-κB (RelA/P65) transcriptional activity; test: NF-κB Jurkat reporter assay; assay type: cell-based
Excerpt: NF-κB luciferase reporter Jurkat T-cells were used to measure NF-κB transcriptional activity in response to reactive astrocyte driving cytokines with or HDAC inhibitors and other validated hits from the primary screen. NFκB luciferase reporter Jurkat T-Cells (BPS Biosciences 60651) were purchased from BPS Bioscience. Within this cell line, the firefly luciferase gene is controlled by four copies of an NF-κB response element located upstream of the TATA promoter. Following activation by an external stimulant, endogenous NF-κB transcription factors bound to the DNA response elements to induce transcription of the luciferase gene.

RelA/P65 = test: Nuclear RelA/P65 in reactive astrocytes; assay type: cell-based, mouse
Method: For immunocytochemistry, cells were fixed with ice-cold 4% PFA for 15 minutes at room temperature, washed three times with PBS, blocked and permeabilized with 10% donkey serum and 0.1% Triton X-100 in PBS for 1 hr, and then stained with primary overnight followed by three washes with PBS, and then 1 hr incubation with Alexaflour secondary antibodies and DAPI. Stained cells were imaged using the PerkinElmer Operetta CLS High-Content Analysis System and analyzed using automated scripts in PerkinElmer Columbus Image Analysis software. Primary antibodies used were GBP2 (ProteinTech, 11854-1-AP), vimentin (BioLegend, 919101), RelA/P65 (Cell Signaling Tech, 6956), MBP (Abeam, AB7349).

[2] = tested on: GBP2+ reactive astrocytes; test: Lipopolysaccharide (LPS) model of neuroinflammation, GBP2+ reactive astrocytes in brain; assay type: in vivo, mouse
Method: After which, brain tissue was collected from the mice and processed for in situ hybridization with probes targeting GFAP as a general astrocyte marker, and the reactive astrocyte-specific marker GBP2.
For in vivo studies in situ hybridization was performed using RNAscope Multiplex Fluorescent V2 Assay (ACD Bio, 323136) according to manufacturer's instructions for fixed frozen samples. Briefly, tissue was prepared by first dehydrating with increasingly higher percentages of ethanol, then dried, blocked with hydrogen peroxide, followed by antigen retrieval for 5 minutes, dried again, and then protein was digested using provided Protease III. RNA targeting probes purchased from ACD Bio were then annealed at 40° C. for 2 hrs, followed by washing and a series of amplification steps before finally tagging the RNA with Opal Dye fluorophores (Perkin Elmer). In situ hybridization Images were captured on a Hamamatsu Nanozoomer S60 Slide scanner with NDP 2.0 software. Image analysis was performed using Perkin Elmer Columbus automated software.

[3] = tested on: GBP2+ reactive astrocytes; test: Primary high-throughput screen, formation of GBP2+ damaging reactive astrocytes; assay type: cell-based, mouse; conditions: 2 μM, TNFα, IL-1α, C1q, 24 hours
Method: Specifically, resting astrocytes were first thawed and plated onto 384-well plates at a density of about 500 cells/mm^2. A Perkin Elmer Janus G3 Varispan Automated Workstation was then used to treat cells with candidate small-molecules from a library of 3115 bioactive small-molecules, with one type of small molecule per well, at a concentration of about 2 μM in 384-well plates, followed one hour later by exposing the pre-treated astrocytes with such reactive astrocyte driving factors as IL-1α (3 ng/mL, Sigma #I3901), C1q (400 ng/mL, MyBioSource #MBS143105), and TNFα (30 ng/mL, R&D Systems #210-TA-020). […]
The cells were then imaged using the PerkinElmer Operetta CLS High-Content Analysis System. Images were analyzed using automated PerkinElmer Columbus Image Analysis Software.
Hits were then determined as those compounds that decreased the number of GBP2^+ reactive astrocytes by greater than 80% compared to reactive astrocytes plus DMSO vehicle control wells. […]
For screening, all liquid handling was performed using a BioTek EL406 Washer Dispenser. […] Images were analyzed using automated PerkinElmer Columbus Image Analysis Software. For analysis, toxic chemicals were first removed; a chemical was considered toxic if it decreased the counted number of live cells in the well by greater than 30% compared to reactive astrocytes plus DMSO vehicle control wells. […]

Gbp2 and Psmb8 = test: Gene expression in cultured human astrocytes (qPCR); assay type: cell-based
Method: Human induced pluripotent stem cells (iPSCs) were cultured to differentiate into astrocytes as described by Perriot et al. (2018). In short, iPSC colonies were placed in neural induction media for 10 days until neural rosettes could be picked, dissociated, and plated in a glial expansion medium. These cells were allowed to proliferate and become a homogenous population of glial progenitor cells (GPCs) over eight passages on poly-L-ornithine and laminin-coated plates. These GPCs were then passaged onto a Matrigel-coated plate to culture in an astrocyte induction media for two weeks, which was followed by culturing for another four weeks in an astrocyte maturation medium.
Cells were lysed in TRIzol and total RNA was extracted with phenol-chloroform followed by spin columns from the RNEasy Mini Kit (74104, QIAGEN). RNA quality and quantity was determined using a NanoDrop spectrophotometer. The RNA was then reverse transcribed using the iScript cDNA synthesis kit (1708891, Bio-Rad) according to the manufacturer's instructions. […]

## Nc1cc(F)ccc1NC(=O)/C=C/c1cnn(C/C=C/c2ccccc2)c1 [RGFP966]
[1]
  RelA/P65 driven transcription (transcriptional activity): decreases
RelA/P65
  nuclear RelA/P65: decreases
[2]; 10 mg/kg i.p. daily plus 5 mg/kg LPS, frontal cortex and corpus callosum, compared to vehicle plus LPS
  percentage of GFAP+ astrocytes expressing GBP2: lower percentage (about half)
[2]; chronic treatment prior to LPS challenge, frontal cortex, cerebellum, brainstem, and corpus callosum
  levels of GBP2+ reactive astrocytes: decreased levels
[3]
  inhibition of the formation of proinflammatory toxic (reactive) astrocytes: robustly inhibit
Gbp2 and Psmb8
  expression of genes associated with DRAs, Gbp2 and Psmb8: decreased expression
